Laboratory results from ChEMBL document CHEMBL1201862, “PubChem BioAssay data set” (2004).
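These data come from cells grown in 96-well plates and exposed to compound for 48 hours at five concentrations. Abbreviation: GI50, concentration required for 50% inhibition of growth.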 The source made the active and inactive calls. Rule as the data show it: active = GI50 up to about 1.1 µM and inactive = higher.

What was measured:
Assay in all cases: NCI tumour cell line growth inhibition, 48 h
IGROV-1 = test system: IGROV-1
SF-295 = test system: SF-295
SW-620 = test system: SW-620
PC-3 = test system: PC-3
OVCAR-3 = test system: OVCAR-3
HCT-15 = test system: HCT-15
T47D = test system: T47D
786-0 = test system: 786-0
MCF7 = test system: MCF7
RXF 393 = test system: RXF 393
UACC-257 = test system: UACC-257
DU-145 = test system: DU-145
NCI-H522 = test system: NCI-H522
KM12 = test system: KM12
Hs-578T = test system: Hs-578T
K562 = test system: K562
NCI-H460 = test system: NCI-H460
UO-31 = test system: UO-31
MDA-MB-435 = test system: MDA-MB-435
XF498 = test system: XF498

Row | Structure (SMILES) | GI50 (IGROV-1) | GI50 (SF-295) | GI50 (SW-620) | GI50 (PC-3) | GI50 (OVCAR-3) | GI50 (HCT-15) [µM] | GI50 (T47D) | GI50 (786-0) | GI50 (MCF7) | GI50 (RXF 393) | GI50 (UACC-257) | GI50 (DU-145) | GI50 (NCI-H522) | GI50 (KM12) | GI50 (Hs-578T) | GI50 (K562) | GI50 (NCI-H460) | GI50 (UO-31) | GI50 (MDA-MB-435) | GI50 (XF498)
1 | CCn1cc(C(=O)O)c(=O)c2cc(F)c(N3CCN(CN4C(=O)/C(=N\c5ncc(Cc6cc(OC)c(OC)c(OC)c6)c(N)n5)c5cc(Cl)ccc54)CC3)cc21 | 8.24 µM (inactive) | > 100 µM (inactive) | 5.3 µM (inactive) | > 100 µM (inactive) | > 100 µM (inactive) | 91.6 | > 100 µM (inactive) | > 100 µM (inactive) | 82 µM (inactive) | > 100 µM (inactive) | > 100 µM (inactive) | > 100 µM (inactive) | > 100 µM (inactive) | 50.2 µM (inactive) | > 100 µM (inactive) | 15.9 µM (inactive) | > 100 µM (inactive) | > 100 µM (inactive) | 33.3 µM (inactive) | –
2 | CN1CCN(c2ccc3[nH]c(-c4ccc5[nH]c(-c6ccc(O)cc6)nc5c4)nc3c2)CC1 | 117 µM (inactive) | – | 102 µM (inactive) | 687 µM (inactive) | – | 224 | 9.4 µM (inactive) | 228 µM (inactive) | 4.98 µM (inactive) | 130 µM (inactive) | 52.1 µM (inactive) | 329 µM (inactive) | 9.82 µM (inactive) | 242 µM (inactive) | > 100 µM (inactive) | 23.3 µM (inactive) | – | 564 µM (inactive) | 8.28 µM (inactive) | 34.4 µM (inactive)
3 | CSc1cc(N)ccc1/N=N/c1ccc(S(N)(=O)=O)cc1 | 23.1 µM (inactive) | 22.1 µM (inactive) | 41.7 µM (inactive) | 32.7 µM (inactive) | 25.1 µM (inactive) | 21.8 | 18.8 µM (inactive) | 26 µM (inactive) | 37.3 µM (inactive) | 30.5 µM (inactive) | 80 µM (inactive) | 34.9 µM (inactive) | 17.7 µM (inactive) | 30.4 µM (inactive) | 23.5 µM (inactive) | 38.1 µM (inactive) | 24.2 µM (inactive) | 16.5 µM (inactive) | 27.4 µM (inactive) | –
4 | COC(=O)c1ccccc1CC1Cc2cc3c(cc2C1=O)CCC3 (stereo not drawn) | 16 µM (inactive) | 14.6 µM (inactive) | 3.82 µM (inactive) | 11.1 µM (inactive) | 13.1 µM (inactive) | 4.02 | 16 µM (inactive) | 16.6 µM (inactive) | 14.6 µM (inactive) | 2.56 µM (inactive) | 19.3 µM (inactive) | 27.7 µM (inactive) | 5.28 µM (inactive) | 8.67 µM (inactive) | 19.6 µM (inactive) | 3.69 µM (inactive) | 29.7 µM (inactive) | 22.3 µM (inactive) | 1.95 µM (inactive) | –
5 | C=C1C(=O)OC2C1CCC(C)C1C=CC(=O)C12C (stereo not drawn) | 6.14 µM (inactive) | 6.81 µM (inactive) | 1.8 µM (inactive) | 4.49 µM (inactive) | 1.22 µM (inactive) | 1.82 | 2.45 µM (inactive) | 1.85 µM (inactive) | 3.92 µM (inactive) | 1.84 µM (inactive) | 1.97 µM (inactive) | 2.53 µM (inactive) | 0.891 µM (active) | 2.16 µM (inactive) | 2.56 µM (inactive) | 2.48 µM (inactive) | 4.84 µM (inactive) | 4.75 µM (inactive) | 1.73 µM (inactive) | 3.29 µM (inactive)
6 | CCOC(=O)C(/C(=N\NC(=O)OC)C(=O)Nc1cc(OC)ccc1OC)c1cnc2ccccc2n1 (stereo not drawn) | > 100 µM (inactive) | > 100 µM (inactive) | > 100 µM (inactive) | – | – | > 100 | – | > 100 µM (inactive) | – | > 100 µM (inactive) | > 100 µM (inactive) | – | > 100 µM (inactive) | – | – | > 100 µM (inactive) | > 100 µM (inactive) | > 100 µM (inactive) | – | > 100 µM (inactive)
7 | CCCCCCCCCOC(=S)NC | 24.2 µM (inactive) | 27.8 µM (inactive) | 20.9 µM (inactive) | – | 19.9 µM (inactive) | 18.7 | – | 18.2 µM (inactive) | – | > 10 µM (inactive) | – | – | 14.7 µM (inactive) | 25.6 µM (inactive) | – | 21.8 µM (inactive) | 19.7 µM (inactive) | 11.2 µM (inactive) | – | 18.2 µM (inactive)
8 | NNC(=O)CCC(=O)Nc1ccc(Cl)cc1Cl | > 100 µM (inactive) | > 100 µM (inactive) | > 100 µM (inactive) | – | > 100 µM (inactive) | 66.2 | – | > 100 µM (inactive) | – | > 100 µM (inactive) | > 100 µM (inactive) | – | > 100 µM (inactive) | > 100 µM (inactive) | – | 19.1 µM (inactive) | > 100 µM (inactive) | > 100 µM (inactive) | – | > 100 µM (inactive)
9 | O=C(c1ccccc1)[C@H]1Nc2cnccc2C2c3ccccc3CC21 (stereo partly drawn) | 24 µM (inactive) | 18.2 µM (inactive) | 17.9 µM (inactive) | – | 7.69 µM (inactive) | 8.95 | – | 12.8 µM (inactive) | – | 14.8 µM (inactive) | 13.2 µM (inactive) | – | 2.78 µM (inactive) | 42.1 µM (inactive) | – | 3.14 µM (inactive) | 15.1 µM (inactive) | 7.21 µM (inactive) | – | 23.7 µM (inactive)
10 | COC(=O)N/N=C/c1oc(-c2cccc([N+](=O)[O-])c2)c(-c2cccc([N+](=O)[O-])c2)c1[N+](=O)[O-] | > 100 µM (inactive) | > 100 µM (inactive) | > 100 µM (inactive) | – | > 100 µM (inactive) | > 100 | – | > 100 µM (inactive) | – | > 100 µM (inactive) | > 100 µM (inactive) | – | 60.8 µM (inactive) | > 100 µM (inactive) | – | 26.5 µM (inactive) | > 100 µM (inactive) | > 100 µM (inactive) | – | > 100 µM (inactive)
11 | CC(=O)OC(OC(C)=O)c1ncccc1C(=O)OC(C)C | > 100 µM (inactive) | 42.4 µM (inactive) | > 100 µM (inactive) | – | > 100 µM (inactive) | 33.8 | – | > 100 µM (inactive) | – | 39.8 µM (inactive) | > 100 µM (inactive) | – | 75.7 µM (inactive) | 63.7 µM (inactive) | – | 18.9 µM (inactive) | 11.3 µM (inactive) | 61.7 µM (inactive) | – | > 100 µM (inactive)
12 | NC(Cc1cccnn1)C(=O)O (stereo not drawn) | > 100 µM (inactive) | > 100 µM (inactive) | > 100 µM (inactive) | > 100 µM (inactive) | > 100 µM (inactive) | > 100 | > 100 µM (inactive) | > 100 µM (inactive) | > 100 µM (inactive) | > 100 µM (inactive) | > 100 µM (inactive) | > 100 µM (inactive) | > 100 µM (inactive) | > 100 µM (inactive) | > 100 µM (inactive) | > 100 µM (inactive) | > 100 µM (inactive) | > 100 µM (inactive) | > 100 µM (inactive) | –
13 | CN(C)C1=NC2=S(SC(Nc3ccccc3)=N2)S1 (stereo not drawn) | 15.7 µM (inactive) | 24.5 µM (inactive) | 46.5 µM (inactive) | – | – | 11.9 | – | 28.8 µM (inactive) | – | 32 µM (inactive) | 7.8 µM (inactive) | – | 10.3 µM (inactive) | 26.4 µM (inactive) | – | 6.62 µM (inactive) | 36.1 µM (inactive) | 24 µM (inactive) | – | 14 µM (inactive)
14 | O=C(Nc1cc(Cl)ccc1Cl)c1cc2cccc(Br)c2oc1=O | > 100 µM (inactive) | 63.4 µM (inactive) | > 100 µM (inactive) | – | 59.8 µM (inactive) | > 100 | – | > 100 µM (inactive) | – | > 100 µM (inactive) | > 100 µM (inactive) | – | > 100 µM (inactive) | > 100 µM (inactive) | – | > 100 µM (inactive) | > 100 µM (inactive) | > 100 µM (inactive) | – | 21.9 µM (inactive)
15 | c1ccc(C2C3=C(CCCC3)Nc3nc4cc5ccccc5cc4n32)cc1 (stereo not drawn) | > 100 µM (inactive) | > 100 µM (inactive) | > 100 µM (inactive) | > 100 µM (inactive) | > 100 µM (inactive) | > 100 | > 100 µM (inactive) | > 100 µM (inactive) | > 100 µM (inactive) | > 100 µM (inactive) | > 100 µM (inactive) | > 100 µM (inactive) | > 100 µM (inactive) | > 100 µM (inactive) | > 100 µM (inactive) | > 100 µM (inactive) | > 100 µM (inactive) | > 100 µM (inactive) | > 100 µM (inactive) | –
16 | CCN(CC)CC(=O)NC1c2ccccc2Oc2ccccc21 | > 100 µM (inactive) | – | > 100 µM (inactive) | – | – | > 100 | – | > 100 µM (inactive) | – | > 100 µM (inactive) | > 100 µM (inactive) | – | – | – | – | > 100 µM (inactive) | > 100 µM (inactive) | > 100 µM (inactive) | – | > 100 µM (inactive)
17 | N#CCCN(c1ccc(/C=C2\N=C(Cc3ccccc3)OC2=O)cc1)S(=O)(=O)c1ccccc1 | > 100 µM (inactive) | > 100 µM (inactive) | > 100 µM (inactive) | – | > 100 µM (inactive) | > 100 | – | > 100 µM (inactive) | – | > 100 µM (inactive) | > 100 µM (inactive) | – | > 100 µM (inactive) | > 100 µM (inactive) | – | > 100 µM (inactive) | > 100 µM (inactive) | > 100 µM (inactive) | – | > 100 µM (inactive)
18 | C/C(=N\N(C)C)c1sc(-n2nc(-c3ccccc3)cc2-c2ccccc2)nc1C | > 100 µM (inactive) | 51.2 µM (inactive) | > 100 µM (inactive) | – | 47.9 µM (inactive) | > 100 | – | > 100 µM (inactive) | – | > 100 µM (inactive) | > 100 µM (inactive) | – | > 100 µM (inactive) | > 100 µM (inactive) | – | > 100 µM (inactive) | > 100 µM (inactive) | > 100 µM (inactive) | – | > 100 µM (inactive)
